# From patent US7632972B2, “Compounds and methods for treatment of cancer and modulation of programmed cell death for melanoma and other cancer cells” (The Board of Trustees of the University of Illionis, priority 2003, dated 2009)
# Tests used:
# IGROV1 = assay: NCI 60 cell line screen (SRB), Ovarian Cancer; assay type: cell-based, human
# Source text: (§1) The operation of this screen utilizes 60 different human tumor cell lines, representing leukemia, melanoma and cancers of the lung, colon, brain, ovary, breast, prostate, and kidney. The aim is to prioritize for further evaluation, synthetic compounds or natural product samples showing selective growth inhibition or cell killing of particular tumor cell lines. This screen is unique in that the complexity of a 60 cell line dose response produced by a given compound results in a biological response pattern which can be utilized in pattern recognition algorithms. Using these algorithms, it is possible to assign a putative mechanism of action to a test compound, or to determine that the response pattern is unique and not similar to that of any of the standard prototype compounds included in the NCl database (see DTP Overview tab). In addition, following characterization of various cellular molecular targets in the 60 cell lines, it may be possible to select compounds most likely to interact with a specific molecular target.
# (§2) The human tumor cell lines of the cancer screening panel are grown in RPMI 1640 medium containing 5% fetal bovine serum and 2 mM L-glutamine. For a typical screening experiment, cells are inoculated into 96 well microtiter plates in 100 μL at plating densities ranging from 5,000 to 40,000 cells/well depending on the doubling time of individual cell lines. After cell inoculation, the microtiter plates are incubated at 37° C., 5% CO2, 95% air and 100% relative humidity for 24 h prior to addition of experimental drugs.
# (§3) After 24 h, two plates of each cell line are fixed in situ with TCA, to represent a measurement of the cell population for each cell line at the time of drug addition (Tz). Experimental drugs are solubilized in dimethyl sulfoxide at 400-fold the desired final maximum test concentration and stored frozen prior to use. At the time of drug addition, an aliquot of frozen concentrate is thawed and diluted to twice the desired final maximum test concentration with complete medium containing 50 μg/ml gentamicin. Additional four, 10-fold or ½ log serial dilutions are made to provide a total of five drug concentrations plus control. Aliquots of 100 μl of these different drug dilutions are added to the appropriate microtiter wells already containing 100 μl of medium, resulting in the required final drug concentrations.
# (§4) Following drug addition, the plates are incubated for an additional 48 h at 37° C., 5% CO2, 95% air, and 100% relative humidity. For adherent cells, the assay is terminated by the addition of cold TCA. Cells are fixed in situ by the gentle addition of 50 μl of cold 50% (w/v) TCA (final concentration, 10% TCA) and incubated for 60 minutes at 4° C. The supernatant is discarded, and the plates are washed five times with tap water and air dried. Sulforhodamine B (SRB) solution (100 μl) at 0.4% (w/v) in 1% acetic acid is added to each well, and plates are incubated for 10 minutes at room temperature. After staining, unbound dye is removed by washing five times with 1% acetic acid and the plates are air dried. Bound stain is subsequently solubilized with 10 mM trizma base, and the absorbance is read on an automated plate reader at a wavelength of 515 nm. For suspension cells, the methodology is the same except that the assay is terminated by fixing settled cells at the bottom of the wells by gently adding 50 μl of 80% TCA (final concentration, 16% TCA). Using the seven absorbance measurements [time zero, (Tz), control growth, (C), and test growth in the presence of drug at the five concentration levels (Ti)], the percentage growth is calculated at each of the drug concentrations levels. Percentage growth inhibition is calculated as: [(Ti−Tz)/(C−Tz)]×100 for concentrations for which Ti>/=Tz [(Ti−Tz)/Tz]×100 for concentrations for which Ti<Tz.
# (§5) Three dose response parameters are calculated for each experimental agent. […]
# SK-OV-3 = assay: NCI 60 cell line screen (SRB), Ovarian Cancer; assay type: cell-based, human
# Source text: as §1, §2, §3, §4, §5
# OVCAR-5 = assay: NCI 60 cell line screen (SRB), Ovarian Cancer; assay type: cell-based, human
# Source text: as §1, §2, §3, §4, §5
# OVCAR-8 = assay: NCI 60 cell line screen (SRB), Ovarian Cancer; assay type: cell-based, human
# Source text: as §1, §2, §3, §4, §5
# OVCAR-4 = assay: NCI 60 cell line screen (SRB), Ovarian Cancer; assay type: cell-based, human
# Source text: as §1, §2, §3, §4, §5
# human tumor cell lines = assay: NCI DTP 60 human tumor cell line screen (whole panel or cell lines not listed singly); assay type: cell-based; settings: NCI panel of human cancer cell lines
# Source text: Selected compounds were identified for additional testing against a panel of human cancer cell lines maintained by the National Cancer Institute.
# Potential anti-cancer agents are screened, and in certain instances were screened, using a screening system provided and performed by the National Cancer Institute (NCl). See http://dtp.nci.nih.gov/docs/misc/common_files/submit_compounds.html. The Developmental Therapeutics Program (DTP) of NCl operates an anti-cancer screening program. The program accepts both natural and synthetic compounds. For screening of natural products extracts, the Natural Products Branch can be contacted.
# The operation of this screen utilizes 60 different human tumor cell lines, representing leukemia, melanoma and cancers of the lung, colon, brain, ovary, breast, prostate, and kidney. The aim is to prioritize for further evaluation, synthetic compounds or natural product samples showing selective growth inhibition or cell killing of particular tumor cell lines. […]
# Following drug addition, the plates are incubated for an additional 48 h at 37° C., 5% CO2, 95% air, and 100% relative humidity. […] Bound stain is subsequently solubilized with 10 mM trizma base, and the absorbance is read on an automated plate reader at a wavelength of 515 nm. […]
smiles,measurement,setting,value
COc1cccc(CCNC(=O)CC(c2ccccc2)(c2ccccc2)c2ccccc2)c1 [Compound Z3],TGI,IGROV1; IGROV1,>1.00E−04
same,Percent Growth,"IGROV1; IGROV1, Log10 Concentration −4.0",10%
same,Percent Growth,"IGROV1; IGROV1, Log10 Concentration −5.0",22%
same,Percent Growth,"IGROV1; IGROV1, Log10 Concentration −6.0",23%
same,Percent Growth,"IGROV1; IGROV1, Log10 Concentration −7.0",63%
same,Percent Growth,"IGROV1; IGROV1, Log10 Concentration −8.0",29%
same,CC50,"IGROV1; IGROV1, read-out: LC50 (the source's name)",> 100 µM
same,GI50,SK-OV-3; SK-OV-3,> 100 µM
same,TGI,SK-OV-3; SK-OV-3,>1.00E−04
same,Percent Growth,"SK-OV-3; SK-OV-3, Log10 Concentration −4.0",87%
same,Percent Growth,"SK-OV-3; SK-OV-3, Log10 Concentration −5.0",84%
same,Percent Growth,"SK-OV-3; SK-OV-3, Log10 Concentration −6.0",97%
same,Percent Growth,"SK-OV-3; SK-OV-3, Log10 Concentration −7.0",98%
same,Percent Growth,"SK-OV-3; SK-OV-3, Log10 Concentration −8.0",92%
same,CC50,"SK-OV-3; SK-OV-3, read-out: LC50 (the source's name)",> 100 µM
same,GI50,OVCAR-5; OVCAR-5,11.7 µM
same,TGI,OVCAR-5; OVCAR-5,>1.00E−04
same,Percent Growth,"OVCAR-5; OVCAR-5, Log10 Concentration −4.0",15%
same,Percent Growth,"OVCAR-5; OVCAR-5, Log10 Concentration −5.0",53%
same,Percent Growth,"OVCAR-5; OVCAR-5, Log10 Concentration −6.0",83%
same,Percent Growth,"OVCAR-5; OVCAR-5, Log10 Concentration −7.0",87%
same,Percent Growth,"OVCAR-5; OVCAR-5, Log10 Concentration −8.0",90%
same,CC50,"OVCAR-5; OVCAR-5, read-out: LC50 (the source's name)",> 100 µM
same,GI50,OVCAR-8; OVCAR-8,4.98 µM
same,TGI,OVCAR-8; OVCAR-8,4.77E−05
same,Percent Growth,"OVCAR-8; OVCAR-8, Log10 Concentration −4.0",−16%
same,Percent Growth,"OVCAR-8; OVCAR-8, Log10 Concentration −5.0",33%
same,Percent Growth,"OVCAR-8; OVCAR-8, Log10 Concentration −6.0",88%
same,Percent Growth,"OVCAR-8; OVCAR-8, Log10 Concentration −7.0",117%
same,Percent Growth,"OVCAR-8; OVCAR-8, Log10 Concentration −8.0",116%
same,CC50,"OVCAR-8; OVCAR-8, read-out: LC50 (the source's name)",> 100 µM
same,GI50,OVCAR-4; OVCAR-4,> 100 µM
same,TGI,OVCAR-4; OVCAR-4,>1.00E−04
same,Percent Growth,"OVCAR-4; OVCAR-4, Log10 Concentration −4.0",92%
same,Percent Growth,"OVCAR-4; OVCAR-4, Log10 Concentration −5.0",80%
same,Percent Growth,"OVCAR-4; OVCAR-4, Log10 Concentration −6.0",82%
same,Percent Growth,"OVCAR-4; OVCAR-4, Log10 Concentration −7.0",106%
same,Percent Growth,"OVCAR-4; OVCAR-4, Log10 Concentration −8.0",92%
same,CC50,"OVCAR-4; OVCAR-4, read-out: LC50 (the source's name)",> 100 µM
same,activity against colon cancer cells,human tumor cell lines,significant activity
same,activity against melanoma cells,human tumor cell lines,significant activity
